In PMC5609601 (Brazilian Journal of Medical and Biological Research, 2017):
“Also recorded” adds a separate entry of the source. Read-outs that look alike come from different tables or passages of the source.

Key:
P-gp = type: in vivo, rat; details: for Influence of verapamil hydrochloride on Papp / Influence of verapamil hydrochloride on absorption / Influence of verapamil hydrochloride on Ka / Influence of verapamil hydrochloride on A%: ileum; for Influence of verapamil hydrochloride on Papp / Influence of verapamil hydrochloride on Ka: high-concentration inhibitor; for Substrate of P-glycoprotein: inferred from verapamil hydrochloride effect
[1] = Stability of curcumin constituents; type: physicochemical, rat; details: for Concentration in blank intestinal perfusion fluid: 37.5±0.5°C, drug-containing SEDDS; for Stability in pH 6.8 K-R blank intestinal perfusion fluid: within 8 h, curcumin SEDDS
rat small intestines [2] = assay: In situ single pass intestinal perfusion: absorption site and drug concentration; type: in vivo; details: for Concentration dependence of absorption / Comparison of absorption among intestinal segments: duodenum; for Concentration dependence of absorption: low, medium, high, higher concentrations; for Comparison of absorption among intestinal segments: jejunum, ileum, colon; for Comparison of absorption among intestinal segments / Main intestinal absorption site: higher concentration group; for Main intestinal absorption site: different intestinal segments; for Transport (absorption) mechanism: rat small intestine
MRP2 = MRP2 (Rattus norvegicus, UniProt Q63120); type: in vivo; details: for Substrate of MRP2: inferred from probenecid effect
[3] = Adsorption of the constituents by the intestinal wall; type: in vitro ADME, rat; details: for Concentration in incubation solution with intestinal wall: 37.5±0.5°C; for Absorption in the intestinal wall: curcumin SEDDS
rat small intestines [4] = type: in vivo; details: duodenum; for Influence of 2,4-dinitrophenol on Ka / Influence of 2,4-dinitrophenol on Papp / Influence of 2,4-dinitrophenol on A%: compared with the group without inhibitor; for Influence of 2,4-dinitrophenol on A%: 1.0, 2.0, 5.0 mmol/L
[5] = jejunum, high-concentration probenecid
[6] = jejunum, probenecid 0.02, 0.04, 0.08 mmol/L

Chain of MRP2 (Q63120 whole entry): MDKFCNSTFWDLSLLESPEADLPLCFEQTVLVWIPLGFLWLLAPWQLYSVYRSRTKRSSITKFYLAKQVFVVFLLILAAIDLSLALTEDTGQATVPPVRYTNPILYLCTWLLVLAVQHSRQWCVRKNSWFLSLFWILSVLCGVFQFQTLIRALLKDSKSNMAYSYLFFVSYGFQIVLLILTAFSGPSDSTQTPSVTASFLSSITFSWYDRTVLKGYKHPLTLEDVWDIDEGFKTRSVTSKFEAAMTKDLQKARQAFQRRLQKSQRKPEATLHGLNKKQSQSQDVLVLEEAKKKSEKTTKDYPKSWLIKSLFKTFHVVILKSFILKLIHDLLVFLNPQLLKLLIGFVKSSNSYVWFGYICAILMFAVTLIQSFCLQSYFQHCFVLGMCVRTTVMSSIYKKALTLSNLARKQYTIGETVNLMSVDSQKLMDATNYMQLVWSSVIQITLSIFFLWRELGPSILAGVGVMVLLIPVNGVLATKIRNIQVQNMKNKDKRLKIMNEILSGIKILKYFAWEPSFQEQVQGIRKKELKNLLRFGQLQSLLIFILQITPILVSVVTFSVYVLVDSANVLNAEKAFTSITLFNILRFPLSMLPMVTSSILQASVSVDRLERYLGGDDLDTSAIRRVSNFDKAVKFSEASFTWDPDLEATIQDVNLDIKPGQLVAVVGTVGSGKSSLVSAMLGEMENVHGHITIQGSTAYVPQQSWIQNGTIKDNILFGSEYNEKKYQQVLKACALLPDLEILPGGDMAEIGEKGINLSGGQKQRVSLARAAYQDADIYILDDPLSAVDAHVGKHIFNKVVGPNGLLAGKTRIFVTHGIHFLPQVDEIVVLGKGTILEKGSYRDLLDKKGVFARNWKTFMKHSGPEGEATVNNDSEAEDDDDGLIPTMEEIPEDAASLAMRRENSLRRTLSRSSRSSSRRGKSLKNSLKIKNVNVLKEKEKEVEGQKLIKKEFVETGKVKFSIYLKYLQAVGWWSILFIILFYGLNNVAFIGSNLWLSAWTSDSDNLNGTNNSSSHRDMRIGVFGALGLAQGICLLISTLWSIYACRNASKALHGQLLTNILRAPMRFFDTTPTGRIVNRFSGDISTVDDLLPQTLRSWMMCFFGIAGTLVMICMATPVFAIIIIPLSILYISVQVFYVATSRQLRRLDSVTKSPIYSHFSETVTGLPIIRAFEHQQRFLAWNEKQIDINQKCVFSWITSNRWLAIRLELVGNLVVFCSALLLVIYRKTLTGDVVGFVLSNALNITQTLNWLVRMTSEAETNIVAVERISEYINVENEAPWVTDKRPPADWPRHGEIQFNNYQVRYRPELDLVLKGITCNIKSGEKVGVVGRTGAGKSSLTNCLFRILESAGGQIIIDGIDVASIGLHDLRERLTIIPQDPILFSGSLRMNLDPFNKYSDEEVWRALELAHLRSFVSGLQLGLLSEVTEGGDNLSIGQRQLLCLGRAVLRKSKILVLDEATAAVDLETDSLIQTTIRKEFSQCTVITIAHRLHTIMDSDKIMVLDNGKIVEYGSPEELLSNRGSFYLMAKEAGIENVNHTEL

Influence of verapamil hydrochloride on Papp (P-gp) | Concentration in blank intestinal perfusion fluid ([1]; time 0 h) | Concentration in blank intestinal perfusion fluid ([1]; time 1 h) | Concentration in blank intestinal perfusion fluid ([1]; time 2 h) | Concentration in blank intestinal perfusion fluid ([1]; time 4 h) | Concentration in blank intestinal perfusion fluid ([1]; time 8 h) | Stability in pH 6.8 K-R blank intestinal perfusion fluid [1] | Concentration dependence of absorption (rat small intestines [2]) | Influence of probenecid on Papp (MRP2; [5]) | Concentration in incubation solution with intestinal wall ([3]; time 0 min) | Concentration in incubation solution with intestinal wall ([3]; time 30 min) | Concentration in incubation solution with intestinal wall ([3]; time 60 min) | Concentration in incubation solution with intestinal wall ([3]; time 90 min) | Concentration in incubation solution with intestinal wall ([3]; time 120 min) | Energy dependence of intestinal absorption process (rat small intestines [4]) | Influence of 2,4-dinitrophenol on Ka (rat small intestines [4]) | Influence of 2,4-dinitrophenol on Papp (rat small intestines [4]) | SMILES | Change of A% with probenecid concentration (MRP2; jejunum) | Change of Ka with probenecid concentration (MRP2; jejunum) | Influence of 2,4-dinitrophenol on A% (rat small intestines [4]) | further results
significantly accelerated | 685 µg/mL | 684 µg/mL | 682 µg/mL | 678 µg/mL | 668 µg/mL | stable | concentration inhibiting effect | significantly increased | 719.250 µg/mL | 717.346 µg/mL | 716.858 µg/mL | 716.019 µg/mL | 701.751 µg/mL |  |  |  | COc1cc(/C=C/C(=O)CC(=O)/C=C/c2ccc(O)c(OC)c2)ccc1O [Cur, curcumin] | increased with the increase in probenecid concentration | increased with the increase in probenecid concentration |  | 
significantly accelerated | 159 µg/mL | 158 µg/mL | 157 µg/mL | 156 µg/mL | 154 µg/mL | stable | saturation phenomenon | significantly increased | 166.950 µg/mL | 165.354 µg/mL | 164.023 µg/mL | 163.724 µg/mL | 162.104 µg/mL | energy-dependent action | decreased significantly (P<0.05) | decreased significantly (P<0.05) | COc1cc(/C=C/C(O)=C/C(=O)/C=C/c2ccc(O)cc2)ccc1O [DMCur, demethoxycurcumin] | increased with the increase in probenecid concentration | increased with the increase in probenecid concentration | decreased in an extremely significant manner (P<0.01) | Influence of verapamil hydrochloride on absorption (P-gp): significantly improve the absorption; Influence of verapamil hydrochloride on Ka (P-gp): significantly accelerated; Influence of verapamil hydrochloride on A% (P-gp; medium-concentration and high-concentration inhibitor): significant increase; Substrate of P-glycoprotein (P-gp): may be the substrates; Comparison of absorption among intestinal segments (rat small intestines [2]): duodenum > colon ≈ jejunum > ileum; also recorded: better in the duodenum and relatively poorer in the ileum; Main intestinal absorption site (rat small intestines [2]): duodenum; Absorption in duodenum compared to colon (rat small intestines [2]; one-way ANOVA): increased significantly (P<0.05); Absorption in duodenum compared with ileum (rat small intestines [2]; one-way ANOVA): increased (P<0.01) in an extremely significant manner; Absorption in jejunum compared with ileum (rat small intestines [2]; one-way ANOVA): increased significantly (P<0.05); Transport (absorption) mechanism (rat small intestines [2]): active transport in the carrier-mediated transport; Substrate of MRP2 (MRP2): may be the substrates; Influence of probenecid on A% (MRP2; [6]): significantly increased; Absorption in the intestinal wall [3]: no obvious absorption
significantly accelerated | 26 µg/mL | 26 µg/mL | 26 µg/mL | 26 µg/mL | 25 µg/mL | stable | concentration inhibiting effect | significantly increased | 27.300 µg/mL | 27.288 µg/mL | 27.247 µg/mL | 27.173 µg/mL | 26.253 µg/mL | energy-dependent action | decreased significantly (P<0.05) | decreased significantly (P<0.05) | O=C(/C=C/c1ccc(O)cc1)CC(=O)/C=C/c1ccc(O)cc1 [BDMCur, bisdemethoxycurcumin] |  |  | decreased in an extremely significant manner (P<0.01) | Influence of verapamil hydrochloride on absorption (P-gp): significantly improve the absorption; Influence of verapamil hydrochloride on Ka (P-gp): significantly accelerated; Influence of verapamil hydrochloride on A% (P-gp; verapamil hydrochloride 0.05, 0.1, 0.5 mmol/L): almost no influence; Substrate of P-glycoprotein (P-gp): may be the substrates; Comparison of absorption among intestinal segments (rat small intestines [2]): not significantly different (P>0.05); also recorded: better in the duodenum and relatively poorer in the ileum; Main intestinal absorption site (rat small intestines [2]): duodenum; Absorption in duodenum compared to colon (rat small intestines [2]; one-way ANOVA): increased (P<0.01) in an extremely significant manner; Transport (absorption) mechanism (rat small intestines [2]): active transport in the carrier-mediated transport; Substrate of MRP2 (MRP2): may be the substrates; Change of A% when probenecid concentration was further increased (MRP2; jejunum, above medium concentration): barely changed; Influence of probenecid on Ka (MRP2; [5]): significantly increased; Influence of probenecid on A% (MRP2; jejunum, medium-concentration probenecid): significantly increased; Influence of probenecid on A% (MRP2; [6]): significantly increased; Absorption in the intestinal wall [3]: no obvious absorption
